Results: patent publication US12377054B2, “Targeting the innate immune system to induce long-term tolerance and to resolve macrophage accumulation in atherosclerosis” (Icahn School of Medicine at Mount Sinai, priority 2016, dated 2025)

Columns and labels:
[1] = tested on: RAW 264.7 cell line of murine macrophages; test: In vitro BrdU incorporation in RAW 264.7 macrophages; type: cell-based; details: 24 hours
cardiac allografts = test: Heart allograft survival (BALB/c into C57BL/6); type: in vivo, mice; details: over a 50-day period, three doses 5 mg/kg rapamycin
Protocol: Lastly, nanoimmunotherapy treatment's capacity to prevent organ rejection and prolong allograft survival was evaluated. Balb/c (H2^d) donor cardiac allografts were transplanted into fully allogeneic C57Bl/6 (H2) recipients treated with: (1) placebo. […] To assess graft survival, recipients underwent abdominal palpation until cardiac contractions completely ceased.
BALB/c hears were transplanted as fully vascularized heterotopic grafts into C57BL/6 mice as previously described^45. […] Cardiac allograft survival was subsequently assessed through daily palpation. Rejection was defined as the complete cessation of cardiac contraction and was confirmed by direct visualization at laparotomy. Graft survival was compared among groups using Kaplan-Meier survival analysis.

myeloid cell compartment = test: Flow cytometry of leukocytes and myeloid cell compartment in blood, spleen and allograft of heart transplant recipients; type: in vivo, mice; details: six days after transplantation
From the text: The leukocyte population was profiled and, more extensively, the myeloid cell compartment, including neutrophils. Mo/MΦ and DC, in the blood, spleens and allografts of mice receiving placebo, oral rapamycin (Oral-Ra) and mTOR-HDL treatments, where the treatment regimen involved three intravenous mTOR-HDL injections, on the day of, as well as at two and five days post transplantation.
Mo/MΦ comprise two different subsets (Ly-6C^hi and Ly-6C^lo) with district migratory properties^23. Six days after transplantation, untreated and Oral-Ra-treated mice had increased numbers of accumulated myeloid cells in their blood, spleen and heart allografts (FIG. 2B and FIG. 9A). Further, the elevated Mo/MΦ populations contained high percentages of inflammatory Ly6C^hi monocytes (FIGS. 9A and 2B). […] The Mo/MΦ subset proportions in the spleen and transplanted organs reflected the levels in peripheral blood (FIG. 1E).
Mouse hearts were rinsed in situ with HBSS with 1% heparin. Explanted hearts were cut into small pieces and digested for 40 minutes at 37° C. with 400 U/ml collagenase IV (Sigma-Aldrich), 10 mM HEPES (Cellgro) and 0.01% DNase 1 (MP Biomedicals) in HBSS (Cellgro). Digested suspensions were passed through a nylon mesh and centrifuged, and the cell pellet was re-suspended in complete HBSS, stained and analyzed by flow cytometry (BD LSR-II; BD Biosciences).
For myeloid cell staining, fluorochrome-conjugated mAbs specific to mouse CD45 (clone 30-F11). CD11b (clone MI/70), CD11c (clone N418), F4/80 (clone CI:A3.1). Ly-6C (clone HK1.4) and corresponding isotype controls were purchased from eBioscience. Ly-6G (clone 1A8) mAb was purchased from Biolegend. F4/80 (clone CI:A3.1) was purchased from AbD Serotec. […] Flow cytometric analysis was performed on LSR II (BD Biosciences) and analyzed with FlowJo software (Tree Star, Inc.). Results are expressed as percentage of cells staining or cells counting (cells per milliliter) above background. mAbs were titered at regular intervals during the course of these studies to ensure the use of saturating concentrations. […]

[2] = mouse, in vivo, po

Cc1ccc(C)c(N/C=C/C(=O)c2ccccc2)c1 [compound 6877002, (2E)-1-phenyl-3-(2,5-dimethylanilino)-2-propen-1one]
proliferation rate of RAW 264.7 macrophages [1]: did not affect the proliferation rate

CO[C@H]1C[C@@H]2CC[C@@H](C)[C@@](O)(O2)C(=O)C(=O)N2CCCC[C@H]2C(=O)O[C@H]([C@H](C)C[C@@H]2CC[C@@H](O)[C@H](OC)C2)CC(=O)[C@H](C)/C=C(\C)[C@@H](O)[C@@H](OC)C(=O)[C@H](C)C[C@H](C)/C=C/C=C/C=C/1C [Oral-Ra, rapamycin]
allograft survival (cardiac allografts): 35% | Ly-C^lo monocytes in blood (myeloid cell compartment): 13% | Ly-C^lo monocytes in heart allografts (myeloid cell compartment): 18% | Ly-C^lo monocytes in spleen (myeloid cell compartment): 44% | kidney toxicity parameters [2]: statistical differences between Oral-Ra and mTOR-HDL
